From patent publication US20210100868A1, “COMPOSITIONS AND METHODS FOR TREATING OR PREVENTING GASTROINTESTINAL DAMAGE ASSOCIATED WITH NSAID THERAPY” (NORTH CAROLINA STATE UNIVERSITY, priority 2018, published 2021)
Where no end group is shown, it is not given here.

Columns and labels:
[1] = test system: ischemic-injured porcine jejunum; test: Recovery of barrier function (transepithelial electrical resistance) in ischemic-injured porcine jejunum in Ussing chambers, with indomethacin; type: cell-based, Yorkshire-cross pigs; conditions: FIG. 1
From the text: In order to determine whether Larazotide could function as a therapeutic agent that could stimulate intestinal tissue repair in the presence of a non-steroidal anti-inflammatory drug (NSAID), recovery of barrier function in ischemic-injured porcine jejunum was monitored in the presence of the NSAID indomethacin.
Specifically, Yorkshire-cross pigs of 6-8 weeks of age were anesthetized, followed by midline laparotomy and creation of a series of 10 cm intestinal loops commencing proximal to the ileum by ligating the intestinal lumen.
The local mesenteric vasculature was ligated to select treatment loops for a period of 45 minutes. Other loops were left as non-ischemic controls. The loops were subsequently resected, and the mucosal tissues were stripped in oxygenated (95% O2/5 % CO2) rings from the muscle layers in preparation of ex vivo incubation in Ussing chambers.
Select tissues (n=8) were pre-treated with indomethacin (5 μM) on both sides of the tissue, prior to receiving 0.1-10 μM Larazotide on the luminal surface after 30 minutes of incubation in the Ussing chambers.
Transepithelial electrical resistance (TER) was monitored in the tissues for 240 minutes.

[2] = clinical trials, cited from earlier work
[3] = test system: tight junction; test: Tight junction regulator activity of larazotide fragments; conditions: for Activity of full length larazotide when mixed with the two fragments: GVLVQPG and VLVQPG mixed with full length larazotide; for Activity as tight junction regulators: fragment alone

Molecule	Activity of full length larazotide when mixed with the two fragments [3]	Activity as tight junction regulators [3]	other results
COc1ccc2c(c1)c(CC(=O)O)c(C)n2C(=O)c1ccc(Cl)cc1 [indomethacin]			Transepithelial electrical resistance (TER) ([1]; indomethacin applied without larazotide): decline in TER
GGVLVQPG [Larazotide]			Transepithelial electrical resistance (TER) ([1]; 1 μM larazotide on luminal surface, in the presence of indomethacin (5 μM), monitored for 240 minutes): increased TER; Clinical activity at higher doses ([2]; higher doses (e.g., 1 mg and 2 mg doses)): attenuation of activity, or no activity at all; Clinical benefit on intestinal disease symptoms ([2]; lower doses (e.g., 0.5 mg dose)): benefit at reducing intestinal disease symptoms
GVLVQPG [larazotide-derived fragment missing an N-terminal glycine residue]	activity is completely abolished	largely inactive	
VLVQPG [larazotide-derived fragment missing N-terminal glycine residues]	activity is completely abolished	largely inactive	
